Data published in US20260356819A1, “OXOISOINDOLINYL-SUBSTITUTED […] DERIVATIVE AND USE THEREOF” (GLUETACS THERAPEUTICS (SHANGHAI) CO., LTD., priority 2023, published 2026).

Columns and labels:
Type in all cases: cell-based
Conditions in all cases: compounds at 50 nM and 500 nM
GSPT1 = target: T1, GSPT1 (Homo sapiens, UniProt P15170+Q96SW2); assay: Western blot degradation of GSPT1 in hPBMCs (24 h)
T1 construct: The supernatant was aspirated as the extracted total cell protein; endogenous in cells; host or cells: human peripheral blood mononuclear cells (hPBMCs)
Method: (§1) Conventional Western blot assay was performed to evaluate the effects of the compounds of the present disclosure on the expression of target proteins in cells. • (1) Cell Seeding and Protein Harvesting: Human peripheral blood mononuclear cells (hPBMCs) at a density of 1×10^6 cells/mL were thawed according to the PBMC Recovery Protocol (Milecell Biotechnologies Inc, Shanghai). The cells were then treated with the compounds of the present disclosure (including the compounds listed in Table 1, and the Examples 1-498 compounds) at concentrations of 50 nM and 500 nM. Controls included a negative control (DMSO) and a positive control (the commercial immunomodulatory drug lenalidomide), both processed following the identical experimental protocol as the compounds of the present disclosure. After 24 hours of compounds treatment, cells were harvested and lysed in RIPA protein lysate containing protease inhibitors on ice for 30 min, followed by centrifugation. The supernatant was aspirated as the extracted total cell protein. The protein concentration of the supernatant was determined using the conventional BCA (Bicinchoninic Acid) assay. • (2) To the collected supernatant, 5×SDS sample loading buffer was added, followed by denaturation at 95 °C for 5 minutes. The denatured samples were then separated by SDS-PAGE electrophoresis on a polyacrylamide gel. Proteins were transferred to a nitrocellulose membrane (0.45 μm NC membrane), blocked with blocking buffer at room temperature for 1 hour, and subjected to antibody incubation and development procedures according to the antibody manufacturer's instructions (Cell Signaling Technology).
(§2) Half-Maximal Degradation Concentration value (the drug concentration required for degrading proteins by 50%, abbreviated as DC50) reads method: comparing the grayscale values of Western blot bands from drug-treated samples with those from blank DMSO-treated controls, and identifying the drug concentration range at which the grayscale value is half that of the DMSO-treated control bands.
(§3) DC50 values can be calculated using ImageJ software to measure grayscale values of Western blot bands from drug-treated samples. The concentration-response curve is fitted to estimate the drug concentration corresponding to half the grayscale value.
(§4) Target protein remaining (%) refers to the percentage of target protein remaining in cells after treatment with protein degrader compounds.
(§5) Calculation method for target protein remaining (%): Use ImageJ software to measure grayscale values of Western blot bands from drug (protein degrader)-treated samples. The grayscale value of drug-treated bands is divided by that of internal control protein bands, and the resulting quotient is normalized to obtain the relative percentage of remaining target protein after protein degrader treatment.
(§6) Target protein degradation rate (%)=1−target protein remaining (%).

IKZF3 = target: T2, IKZF3 (Homo sapiens, UniProt Q96SW2+Q9UKT9); assay: Western blot degradation of IKZF3 in hPBMCs (24 h)
T2 construct: The supernatant was aspirated as the extracted total cell protein; endogenous in cells; host or cells: human peripheral blood mononuclear cells (hPBMCs)
Method: as §1, §2, §3, §4, §5, §6

IKZF1 = target: T3, IKZF1 (Homo sapiens, UniProt Q13422+Q96SW2); assay: Western blot degradation of IKZF1 in hPBMCs (24 h)
T3 construct: The supernatant was aspirated as the extracted total cell protein; endogenous in cells; host or cells: human peripheral blood mononuclear cells (hPBMCs)
Method: as §1, §2, §3, §4, §5, §6

CK1α = target: T4, CK1α (Homo sapiens, UniProt P48729+Q96SW2); assay: Western blot degradation of CK1α in hPBMCs (24 h)
T4 construct: The supernatant was aspirated as the extracted total cell protein; endogenous in cells; host or cells: human peripheral blood mononuclear cells (hPBMCs)
Method: as §1, §2, §3, §4, §5, §6

WEE1 = target: T5, WEE1 (Homo sapiens, UniProt P30291+Q96SW2); assay: Western blot degradation of WEE1 in hPBMCs (24 h)
T5 construct: The supernatant was aspirated as the extracted total cell protein; endogenous in cells; host or cells: human peripheral blood mononuclear cells (hPBMCs)
Method: as §1, §2, §3, §4, §5, §6

IKZF2 = target: T6, IKZF2 (Homo sapiens, UniProt Q96SW2+Q9UKS7); assay: Western blot degradation of IKZF2 in hPBMCs (24 h)
T6 construct: The supernatant was aspirated as the extracted total cell protein; endogenous in cells; host or cells: human peripheral blood mononuclear cells (hPBMCs)
Method: as §1, §2, §3, §4, §5, §6

T3 sequence (Q13422 whole entry): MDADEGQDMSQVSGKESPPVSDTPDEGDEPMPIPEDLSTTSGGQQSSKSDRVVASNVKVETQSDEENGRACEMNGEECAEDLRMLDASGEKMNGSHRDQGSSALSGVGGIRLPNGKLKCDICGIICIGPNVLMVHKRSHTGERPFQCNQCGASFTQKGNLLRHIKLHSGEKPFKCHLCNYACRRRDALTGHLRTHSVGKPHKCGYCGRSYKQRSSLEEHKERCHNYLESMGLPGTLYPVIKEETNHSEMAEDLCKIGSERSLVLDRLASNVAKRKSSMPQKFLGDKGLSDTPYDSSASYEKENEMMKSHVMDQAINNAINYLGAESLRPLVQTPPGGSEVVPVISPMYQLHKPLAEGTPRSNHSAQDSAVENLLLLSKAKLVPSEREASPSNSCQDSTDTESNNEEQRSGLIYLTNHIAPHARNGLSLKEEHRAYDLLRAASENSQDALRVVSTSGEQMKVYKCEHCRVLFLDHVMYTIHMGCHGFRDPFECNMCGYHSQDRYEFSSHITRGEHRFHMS
T3 sequence (Q96SW2 whole entry): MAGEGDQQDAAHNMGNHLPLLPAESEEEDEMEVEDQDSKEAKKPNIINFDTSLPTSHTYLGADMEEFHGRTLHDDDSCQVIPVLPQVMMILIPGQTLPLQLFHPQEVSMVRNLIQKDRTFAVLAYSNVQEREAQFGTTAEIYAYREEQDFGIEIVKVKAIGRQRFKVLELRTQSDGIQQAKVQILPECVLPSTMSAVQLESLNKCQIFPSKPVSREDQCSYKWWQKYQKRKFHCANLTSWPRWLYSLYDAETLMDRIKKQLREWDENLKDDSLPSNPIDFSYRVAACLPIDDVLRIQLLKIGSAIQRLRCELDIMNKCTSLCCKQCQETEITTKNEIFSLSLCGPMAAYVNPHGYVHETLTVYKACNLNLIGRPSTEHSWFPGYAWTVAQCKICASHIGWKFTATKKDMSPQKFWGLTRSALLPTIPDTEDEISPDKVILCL
T3 sequence (Q16531 whole entry partner): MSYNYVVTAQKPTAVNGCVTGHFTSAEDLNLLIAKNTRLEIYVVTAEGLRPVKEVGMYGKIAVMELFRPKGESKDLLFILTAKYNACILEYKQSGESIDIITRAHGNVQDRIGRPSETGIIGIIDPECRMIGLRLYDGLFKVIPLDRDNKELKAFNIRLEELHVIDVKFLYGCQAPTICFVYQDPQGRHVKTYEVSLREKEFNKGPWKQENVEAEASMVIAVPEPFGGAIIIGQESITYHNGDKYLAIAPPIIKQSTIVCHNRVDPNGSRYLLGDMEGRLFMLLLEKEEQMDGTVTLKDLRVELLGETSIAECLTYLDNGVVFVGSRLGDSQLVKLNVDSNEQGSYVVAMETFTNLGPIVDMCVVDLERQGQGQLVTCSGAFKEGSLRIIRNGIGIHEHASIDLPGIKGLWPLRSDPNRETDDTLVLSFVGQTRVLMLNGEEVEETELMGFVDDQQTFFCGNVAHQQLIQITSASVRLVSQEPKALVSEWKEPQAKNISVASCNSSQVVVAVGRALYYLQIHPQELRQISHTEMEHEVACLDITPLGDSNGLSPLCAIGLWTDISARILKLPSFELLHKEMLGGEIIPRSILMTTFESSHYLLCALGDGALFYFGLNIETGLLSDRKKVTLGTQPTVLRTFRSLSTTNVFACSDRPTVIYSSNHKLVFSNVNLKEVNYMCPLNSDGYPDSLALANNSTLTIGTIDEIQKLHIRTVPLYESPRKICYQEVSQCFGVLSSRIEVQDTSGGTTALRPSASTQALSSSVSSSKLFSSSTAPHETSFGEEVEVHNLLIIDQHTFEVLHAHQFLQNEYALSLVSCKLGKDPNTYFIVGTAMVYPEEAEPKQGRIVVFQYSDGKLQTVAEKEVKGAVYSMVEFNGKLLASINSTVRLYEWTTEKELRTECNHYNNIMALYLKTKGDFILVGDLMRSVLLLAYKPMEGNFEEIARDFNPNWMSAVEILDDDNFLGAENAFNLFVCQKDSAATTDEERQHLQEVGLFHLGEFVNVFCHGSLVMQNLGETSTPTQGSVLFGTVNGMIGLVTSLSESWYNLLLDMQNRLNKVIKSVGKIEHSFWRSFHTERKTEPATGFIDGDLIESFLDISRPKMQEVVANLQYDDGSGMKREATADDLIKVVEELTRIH
T5 sequence (P30291 whole entry): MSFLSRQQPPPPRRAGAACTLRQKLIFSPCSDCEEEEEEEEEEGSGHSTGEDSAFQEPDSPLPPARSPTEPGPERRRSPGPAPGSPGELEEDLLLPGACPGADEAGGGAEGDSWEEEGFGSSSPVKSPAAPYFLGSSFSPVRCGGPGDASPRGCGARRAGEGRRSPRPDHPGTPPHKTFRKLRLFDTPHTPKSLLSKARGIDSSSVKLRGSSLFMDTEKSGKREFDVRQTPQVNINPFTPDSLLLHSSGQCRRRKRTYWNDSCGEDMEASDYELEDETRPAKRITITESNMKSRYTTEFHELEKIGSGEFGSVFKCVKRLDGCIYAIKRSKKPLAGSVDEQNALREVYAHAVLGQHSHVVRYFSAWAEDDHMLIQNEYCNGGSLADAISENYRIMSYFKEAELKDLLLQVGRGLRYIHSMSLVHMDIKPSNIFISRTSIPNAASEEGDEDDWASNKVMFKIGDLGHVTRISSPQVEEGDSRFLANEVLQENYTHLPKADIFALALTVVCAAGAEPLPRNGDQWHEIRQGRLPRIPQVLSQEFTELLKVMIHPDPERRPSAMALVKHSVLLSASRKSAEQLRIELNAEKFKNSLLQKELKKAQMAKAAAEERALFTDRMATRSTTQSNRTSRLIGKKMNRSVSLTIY
T5 sequence (Q96SW2 whole entry): as the sequence (Q96SW2 whole entry) above
T5 sequence (Q16531 whole entry partner): as the sequence (Q16531 whole entry partner) above
T4 sequence (P48729 whole entry): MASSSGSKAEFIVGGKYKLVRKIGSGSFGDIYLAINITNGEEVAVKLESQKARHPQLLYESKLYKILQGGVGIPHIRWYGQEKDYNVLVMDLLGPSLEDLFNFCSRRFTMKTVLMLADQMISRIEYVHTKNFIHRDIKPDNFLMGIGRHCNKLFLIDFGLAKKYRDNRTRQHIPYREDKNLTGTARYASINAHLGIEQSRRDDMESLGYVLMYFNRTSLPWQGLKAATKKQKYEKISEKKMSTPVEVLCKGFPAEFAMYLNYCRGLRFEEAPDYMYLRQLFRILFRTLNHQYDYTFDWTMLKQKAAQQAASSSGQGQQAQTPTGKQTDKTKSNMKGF
T4 sequence (Q96SW2 whole entry): as the sequence (Q96SW2 whole entry) above
T4 sequence (Q16531 whole entry partner): as the sequence (Q16531 whole entry partner) above
T1 sequence (P15170 whole entry): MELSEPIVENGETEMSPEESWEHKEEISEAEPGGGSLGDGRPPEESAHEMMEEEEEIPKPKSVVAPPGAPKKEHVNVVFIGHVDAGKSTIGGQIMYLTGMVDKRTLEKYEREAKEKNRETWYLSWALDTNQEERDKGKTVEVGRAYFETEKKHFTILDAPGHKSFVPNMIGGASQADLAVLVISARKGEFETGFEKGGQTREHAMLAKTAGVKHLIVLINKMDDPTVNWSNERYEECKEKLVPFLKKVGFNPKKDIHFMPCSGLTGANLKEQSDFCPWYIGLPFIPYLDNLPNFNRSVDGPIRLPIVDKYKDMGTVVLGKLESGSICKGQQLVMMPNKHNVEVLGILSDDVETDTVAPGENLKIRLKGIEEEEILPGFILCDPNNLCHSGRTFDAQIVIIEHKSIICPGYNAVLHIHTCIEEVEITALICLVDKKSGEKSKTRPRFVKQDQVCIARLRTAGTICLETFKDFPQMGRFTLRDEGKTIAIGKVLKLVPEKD
T1 sequence (Q96SW2 whole entry): as the sequence (Q96SW2 whole entry) above
T1 sequence (Q16531 whole entry partner): as the sequence (Q16531 whole entry partner) above
T2 sequence (Q9UKT9 whole entry): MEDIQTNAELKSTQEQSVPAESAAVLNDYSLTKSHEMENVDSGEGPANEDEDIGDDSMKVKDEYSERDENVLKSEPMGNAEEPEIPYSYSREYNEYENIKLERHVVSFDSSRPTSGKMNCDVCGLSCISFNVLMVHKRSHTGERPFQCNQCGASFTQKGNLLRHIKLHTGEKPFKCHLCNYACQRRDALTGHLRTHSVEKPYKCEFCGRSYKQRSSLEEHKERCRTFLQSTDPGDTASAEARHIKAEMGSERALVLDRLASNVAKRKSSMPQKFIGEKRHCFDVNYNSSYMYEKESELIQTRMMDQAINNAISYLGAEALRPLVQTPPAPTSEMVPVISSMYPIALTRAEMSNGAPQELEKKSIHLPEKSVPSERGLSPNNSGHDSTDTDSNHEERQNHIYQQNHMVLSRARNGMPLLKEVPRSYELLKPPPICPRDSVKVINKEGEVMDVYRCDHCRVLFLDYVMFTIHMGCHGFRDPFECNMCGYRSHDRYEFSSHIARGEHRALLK
T2 sequence (Q96SW2 whole entry): as the sequence (Q96SW2 whole entry) above
T2 sequence (Q16531 whole entry partner): as the sequence (Q16531 whole entry partner) above

| Compound | GSPT1 substrate protein remaining % (GSPT1) | IKZF3 substrate protein remaining % (IKZF3) | IKZF1 substrate protein remaining % (IKZF1) | CK1α substrate protein remaining % (CK1α) | WEE1 substrate protein remaining % (WEE1) | IKZF2 substrate protein remaining % (IKZF2) |
| --- | --- | --- | --- | --- | --- | --- |
| Cc1sc2ncnc(N3CCCN(Cc4ccc5c(c4)CN(N4CCC(=O)NC4=O)C5=O)CC3)c2c1C [GT-08062, 1-(5-((4-(5,6-dimethylthieno[2,3-d]pyrimidin-4-yl)-1,4-diazepan-1-yl)methyl)-1-oxoisoindolin-2-yl)dihydropyrimidine-2,4(1H,3H)-dione] | B (80%< substrate protein remaining % ≤100%) | A (0% ≤ substrate protein remaining % ≤80%) | B (80%< substrate protein remaining % ≤100%) | B (80%< substrate protein remaining % ≤100%) | B (80%< substrate protein remaining % ≤100%) | A (0% ≤ substrate protein remaining % ≤80%) |
| O=C1CCN(N2C(=O)c3ccc(CN4CCC(C5CCOc6cc(F)ccc65)CC4)cc3C2=O)C(=O)N1 (stereo not shown) [GT-07684, 2-(2,4-dioxotetrahydropyrimidin-1(2H)-yl)-5-((4-(7-fluorochroman-4-yl)piperidin-1-yl)methyl)isoindoline-1,3-dione] | A (0% ≤ substrate protein remaining % ≤80%) | B (80%< substrate protein remaining % ≤100%) | B (80%< substrate protein remaining % ≤100%) | B (80%< substrate protein remaining % ≤100%) | B (80%< substrate protein remaining % ≤100%) | B (80%< substrate protein remaining % ≤100%) |
| O=C1CCN(N2Cc3cc(CNC45CC6CC(CC(O)(C6)C4)C5)ccc3C2=O)C(=O)N1 [GT-07784, 1-(5-((((1r,3s,5R,7S)-3-hydroxyadamantan-1-yl)amino)methyl)-1-oxoisoindolin-2-yl)dihydropyrimidine-2,4(1H,3H)-dione] | B (80%< substrate protein remaining % ≤100%) | B (80%< substrate protein remaining % ≤100%) | B (80%< substrate protein remaining % ≤100%) | B (80%< substrate protein remaining % ≤100%) | B (80%< substrate protein remaining % ≤100%) | A (0% ≤ substrate protein remaining % ≤80%) |
| O=C1CCN(N2C(=O)c3ccc(CN4CCN(c5c[nH]c6ncccc56)CC4)cc3C2=O)C(=O)N1 [GT-07528, 5-((4-(1H-pyrrolo[2,3-b]pyridin-3-yl)piperazin-1-yl)methyl)-2-(2,4-dioxotetrahydropyrimidin-1(2H)-yl)isoindoline-1,3-dione] | A (0% ≤ substrate protein remaining % ≤80%) | B (80%< substrate protein remaining % ≤100%) | B (80%< substrate protein remaining % ≤100%) | A (0% ≤ substrate protein remaining % ≤80%) | B (80%< substrate protein remaining % ≤100%) | B (80%< substrate protein remaining % ≤100%) |
| O=C1CCN(N2Cc3cc(CN4CCN(c5ccncc5Br)CC4)ccc3C2=O)C(=O)N1 [GT-05439, 1-(5-((4-(3-bromopyridin-4-yl)piperazin-1-yl)methyl)-1-oxoisoindolin-2-yl)dihydropyrimidine-2,4(1H,3H)-dione] | – | – | B (80%< substrate protein remaining % ≤100%) | – | A (0% ≤ substrate protein remaining % ≤80%) | B (80%< substrate protein remaining % ≤100%) |
| O=C1CCN(N2Cc3cc(CN4CCN(c5cccnc5)CC4)ccc3C2=O)C(=O)N1 [GT-05434, 1-(1-oxo-5-((4-(pyridin-3-yl)piperazin-1-yl)methyl)isoindolin-2-yl)dihydropyrimidine-2,4(1H,3H)-dione] | A (0% ≤ substrate protein remaining % ≤80%) | B (80%< substrate protein remaining % ≤100%) | B (80%< substrate protein remaining % ≤100%) | – | A (0% ≤ substrate protein remaining % ≤80%) | – |
| O=C1CCN(N2Cc3cc(CN4CCN(c5cccc(C(F)(F)F)n5)CC4)ccc3C2=O)C(=O)N1 [GT-05175, 1-(1-oxo-5-((4-(6-(trifluoromethyl)pyridin-2-yl)piperazin-1-yl)methyl)isoindolin-2-yl)dihydropyrimidine-2,4(1H,3H)-dione] | A (0% ≤ substrate protein remaining % ≤80%) | – | B (80%< substrate protein remaining % ≤100%) | – | A (0% ≤ substrate protein remaining % ≤80%) | B (80%< substrate protein remaining % ≤100%) |
| O=C1CCN(N2C(=O)c3ccc(CN4CCN(c5ncccc5F)CC4)cc3C2=O)C(=O)N1 [GT-05355, 2-(2,4-dioxotetrahydropyrimidin-1(2H)-yl)-5-((4-(3-fluoropyridin-2-yl)piperazin-1-yl)methyl)isoindoline-1,3-dione] | A (0% ≤ substrate protein remaining % ≤80%) | B (80%< substrate protein remaining % ≤100%) | B (80%< substrate protein remaining % ≤100%) | B (80%< substrate protein remaining % ≤100%) | B (80%< substrate protein remaining % ≤100%) | – |
| O=C1CCN(N2Cc3cc(CN4CCN(c5nccc(Cl)c5Br)CC4)ccc3C2=O)C(=O)N1 [GT-05432, 1-(5-((4-(3-bromo-4-chloropyridin-2-yl)piperazin-1-yl)methyl)-1-oxoisoindolin-2-yl)dihydropyrimidine-2,4(1H,3H)-dione] | – | B (80%< substrate protein remaining % ≤100%) | B (80%< substrate protein remaining % ≤100%) | B (80%< substrate protein remaining % ≤100%) | A (0% ≤ substrate protein remaining % ≤80%) | B (80%< substrate protein remaining % ≤100%) |
| O=C1CCN(N2C(=O)c3ccc(CN4CCN(c5cccc(Cl)n5)CC4)cc3C2=O)C(=O)N1 [GT-05353, 5-((4-(6-chloropyridin-2-yl)piperazin-1-yl)methyl)-2-(2,4-dioxotetrahydropyrimidin-1(2H)-yl)isoindoline-1,3-dione] | A (0% ≤ substrate protein remaining % ≤80%) | B (80%< substrate protein remaining % ≤100%) | B (80%< substrate protein remaining % ≤100%) | B (80%< substrate protein remaining % ≤100%) | – | B (80%< substrate protein remaining % ≤100%) |
| O=C1CCN(N2Cc3cc(CN4CCN(c5ncc(C(F)(F)F)cc5Cl)CC4)ccc3C2=O)C(=O)N1 [GT-05433, 1-(5-((4-(3-chloro-5-(trifluoromethyl)pyridin-2-yl)piperazin-1-yl)methyl)-1-oxoisoindolin-2-yl)dihydropyrimidine-2,4(1H,3H)-dione] | A (0% ≤ substrate protein remaining % ≤80%) | B (80%< substrate protein remaining % ≤100%) | B (80%< substrate protein remaining % ≤100%) | B (80%< substrate protein remaining % ≤100%) | A (0% ≤ substrate protein remaining % ≤80%) | – |
